In patent US8710065B2, “Tricyclic inhibitors of kinases” (AbbVie Inc., priority 2011, dated 2014):
pKi: −log10 of the molar value.

molecular target: T1, GST-tagged-Wee1 kinase (Homo sapiens, UniProt P30291); experiment: Wee1 time-resolved fluorescence equilibrium binding assay (displacement of Oregon Green-labeled ATP-competitive kinase probe); conditions: read-out: Wee-1 inhibition (Ki)
T1 construct: purchased Carnabio (Carna Biosciences) 05-177
Method in brief: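 Ki values derive from competitive displacement, under equilibrium, of a fast-reversible ATP-site Oregon Green kinase probe from GST-tagged Wee1, detected by time-resolved fluorescence.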

T1 sequence (P30291 whole entry): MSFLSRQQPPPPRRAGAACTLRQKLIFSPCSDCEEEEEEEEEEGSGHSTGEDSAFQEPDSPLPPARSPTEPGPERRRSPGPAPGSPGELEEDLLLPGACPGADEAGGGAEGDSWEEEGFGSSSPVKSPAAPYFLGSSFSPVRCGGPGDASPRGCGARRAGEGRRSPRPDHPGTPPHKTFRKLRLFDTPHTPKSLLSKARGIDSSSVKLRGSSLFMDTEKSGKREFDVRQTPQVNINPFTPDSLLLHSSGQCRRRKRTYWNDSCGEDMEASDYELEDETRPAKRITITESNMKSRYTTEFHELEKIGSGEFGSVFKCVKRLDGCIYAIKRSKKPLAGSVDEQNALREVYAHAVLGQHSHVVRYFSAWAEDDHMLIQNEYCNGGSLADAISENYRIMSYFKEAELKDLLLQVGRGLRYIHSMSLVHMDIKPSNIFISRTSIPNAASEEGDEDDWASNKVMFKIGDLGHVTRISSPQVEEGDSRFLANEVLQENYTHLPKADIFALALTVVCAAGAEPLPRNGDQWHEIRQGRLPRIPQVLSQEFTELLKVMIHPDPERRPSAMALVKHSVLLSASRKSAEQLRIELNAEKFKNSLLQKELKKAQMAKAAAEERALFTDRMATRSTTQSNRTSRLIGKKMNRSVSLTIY

| SMILES | pKi |
| --- | --- |
| CN1Cc2cc(Nc3ncc4c(=O)n(-c5c(Cl)cccc5Cl)c5nccn5c4n3)ccc2C(C)(C)C1 [Example 152, 6-(2,6-dichlorophenyl)-2-[(2,4,4-trimethyl-1,2,3,4-tetrahydroisoquinolin-7-yl)amino]imidazo[1,2-a]pyrimido[5,4-e]pyrimidin-5(6H)-one] | > 8.00 |
| CN(C)C1CCN(c2ccc(Nc3ncc4c(=O)n(-c5ccccc5Cl)c5nccn5c4n3)cc2)CC1 [Example 191, 6-(2-chlorophenyl)-2-({4-[4-(dimethylamino)piperidin-1-yl]phenyl}amino)imidazo[1,2-a]pyrimido[5,4-e]pyrimidin-5(6H)-one] | > 8.00 |
| O=c1c2cnc(Nc3ccc(NCCCN4CCOCC4)cc3)nc2n2ccnc2n1-c1ccccc1Cl [Example 189, 6-(2-chlorophenyl)-2-[(4-{[3-(morpholin-4-yl)propyl]amino}phenyl)amino]imidazo[1,2-a]pyrimido[5,4-e]pyrimidin-5(6H)-one] | 7.00 to 8.00 |
| COc1cc(Nc2ncc3c(=O)n(-c4ccccc4Cl)c4nccn4c3n2)ccc1N1CCN(C(C)C)CC1 [Example 66, 6-(2-chlorophenyl)-2-({3-methoxy-4-[4-(propan-2-yl)piperazin-1-yl]phenyl}amino)imidazo[1,2-a]pyrimido[5,4-e]pyrimidin-5(6H)-one] | > 8.00 |
| CN1CCN(c2ccc(Nc3ncc4c(=O)n(-c5c(Cl)cccc5Cl)c5nccn5c4n3)cc2Cl)CC1 [Example 136, 2-{[3-chloro-4-(4-methylpiperazin-1-yl)phenyl]amino}-6-(2,6-dichlorophenyl)imidazo[1,2-a]pyrimido[5,4-e]pyrimidin-5(6H)-one] | > 8.00 |
| Cc1cc(Nc2ncc3c(=O)n(-c4c(Cl)cccc4Cl)c4nccn4c3n2)ccc1N1CCCN(C)CC1 [Example 74, 6-(2,6-dichlorophenyl)-2-{[3-methyl-4-(4-methyl-1,4-diazepan-1-yl)phenyl]amino}imidazo[1,2-a]pyrimido[5,4-e]pyrimidin-5(6H)-one] | > 8.00 |
| COc1cc(Nc2ncc3c(=O)n(-c4c(Cl)cccc4Cl)c4nccn4c3n2)ccc1N1CCN(C(C)C)CC1 [Example 137, 6-(2,6-dichlorophenyl)-2-({3-methoxy-4-[4-(propan-2-yl)piperazin-1-yl]phenyl}amino)imidazo[1,2-a]pyrimido[5,4-e]pyrimidin-5(6H)-one] | > 8.00 |
| O=c1c2cnc(Nc3ccc(C4CCCCN4)cc3)nc2n2ccnc2n1-c1ccccc1Cl (stereo not shown) [Example 70, 6-(2-chlorophenyl)-2-{[4-(piperidin-2-yl)phenyl]amino}imidazo[1,2-a]pyrimido[5,4-e]pyrimidin-5(6H)-one] | > 8.00 |
| O=c1c2cnc(Nc3ccc(N4CCC(N5CCCC5)CC4)cc3)nc2n2ccnc2n1-c1c(Cl)cccc1Cl [Example 240, 6-(2,6-dichlorophenyl)-2-({4-[4-(pyrrolidin-1-yl)piperidin-1-yl]phenyl}amino)imidazo[1,2-a]pyrimido[5,4-e]pyrimidin-5(6H)-one] | > 8.00 |
| O=c1c2cnc(Nc3ccc4c(c3)CNCC43CC3)nc2n2ccnc2n1-c1cccc(O)c1Cl [Example 278, 6-(2-chloro-3-hydroxyphenyl)-2-(2′,3′-dihydro-1′H-spiro[cyclopropane-1,4′-isoquinolin]-7′-ylamino)imidazo[1,2-a]pyrimido[5,4-e]pyrimidin-5(6H)-one] | > 8.00 |
| O=c1cn[nH]c2ccc(Nc3ncc4c(=O)n(-c5c(Cl)cccc5Cl)c5nccn5c4n3)cc12 [Example 213, 6-(2,6-dichlorophenyl)-2-[(4-oxo-1,4-dihydrocinnolin-6-yl)amino]imidazo[1,2-a]pyrimido[5,4-e]pyrimidin-5(6H)-one] | > 8.00 |
| CN1Cc2cc(Nc3ncc4c(=O)n(-c5c(Cl)cccc5Cl)c5nccn5c4n3)ccc2C2(CC2)C1 [Example 73, 6-(2,6-dichlorophenyl)-2-[(2′-methyl-2′,3′-dihydro-1′H-spiro[cyclopropane-1,4′-isoquinolin]-7′-yl)amino]imidazo[1,2-a]pyrimido[5,4-e]pyrimidin-5(6H)-one] | > 8.00 |
| O=c1c2cnc(Nc3ccc(C4CCCCC4)cc3)nc2n2ccnc2n1-c1ccccc1Cl [Example 7, 6-(2-chlorophenyl)-2-[(4-cyclohexylphenyl)amino]imidazo[1,2-a]pyrimido[5,4-e]pyrimidin-5(6H)-one] | 7.00 to 8.00 |
| O=c1c2cnc(Nc3ccc(N4CCC(N5CCCCC5)CC4)cc3)nc2n2ccnc2n1-c1ccccc1Cl [Example 229, 2-{[4-(1,4′-bipiperidin-1′-yl)phenyl]amino}-6-(2-chlorophenyl)imidazo[1,2-a]pyrimido[5,4-e]pyrimidin-5(6H)-one] | > 8.00 |
| CN1CCc2ccc(Nc3ncc4c(=O)n(-c5ccccc5Cl)c5nccn5c4n3)cc2C1(C)C [Example 108, 6-(2-chlorophenyl)-2-[(1,1,2-trimethyl-1,2,3,4-tetrahydroisoquinolin-7-yl)amino]imidazo[1,2-a]pyrimido[5,4-e]pyrimidin-5(6H)-one] | > 8.00 |
| O=c1c2cnc(Nc3ccc(NCCN4CCOCC4)cc3)nc2n2ccnc2n1-c1ccccc1Cl [Example 248, 6-(2-chlorophenyl)-2-[(4-{[2-(morpholin-4-yl)ethyl]amino}phenyl)amino]imidazo[1,2-a]pyrimido[5,4-e]pyrimidin-5(6H)-one] | > 8.00 |
| O=c1c2cnc(Nc3ccc(CC4CCNCC4)cc3)nc2n2ccnc2n1-c1ccccc1Cl [Example 291, 6-(2-chlorophenyl)-2-{[4-(piperidin-4-ylmethyl)phenyl]amino}imidazo[1,2-a]pyrimido[5,4-e]pyrimidin-5(6H)-one] | > 8.00 |
| COCCN1CCc2ccc(Nc3ncc4c(=O)n(-c5ccccc5Cl)c5nccn5c4n3)cc2C1 [Example 52, 6-(2-chlorophenyl)-2-{[2-(2-methoxyethyl)-1,2,3,4-tetrahydroisoquinolin-7-yl]amino}imidazo[1,2-a]pyrimido[5,4-e]pyrimidin-5(6H)-one] | > 8.00 |
| CN1Cc2cc(Nc3ncc4c(=O)n(-c5c(Cl)cccc5Cl)c5nccn5c4n3)ccc2C1(C)C [Example 178, 6-(2,6-dichlorophenyl)-2-[(1,1,2-trimethyl-2,3-dihydro-1H-isoindol-5-yl)amino]imidazo[1,2-a]pyrimido[5,4-e]pyrimidin-5(6H)-one] | > 8.00 |
| CC1(C)CN(CC2CCCCC2)Cc2cc(Nc3ncc4c(=O)n(-c5ccccc5Cl)c5nccn5c4n3)ccc21 [Example 113, 6-(2-chlorophenyl)-2-{[2-(cyclohexylmethyl)-4,4-dimethyl-1,2,3,4-tetrahydroisoquinolin-7-yl]amino}imidazo[1,2-a]pyrimido[5,4-e]pyrimidin-5(6H)-one] | > 8.00 |

Other lines, results leading:

| pKi | SMILES |
| --- | --- |
| > 8.00 | CN(C)C1CCC(OC(=O)c2ccc(Nc3ncc4c(=O)n(-c5c(Cl)cccc5Cl)c5nccn5c4n3)cc2)CC1 (stereo not shown) [Example 193, 4-(dimethylamino)cyclohexyl 4-{[6-(2,6-dichlorophenyl)-5-oxo-5,6-dihydroimidazo[1,2-a]pyrimido[5,4-e]pyrimidin-2-yl]amino}benzoate] |
| < 7.00 | O=c1c2cnc(Nc3cc(Cl)c(N4CCNCC4)c(C(F)(F)F)c3)nc2n2ccnc2n1-c1ccccc1Cl [Example 354, 6-(2-chlorophenyl)-2-{[3-chloro-4-(piperazin-1-yl)-5-(trifluoromethyl)phenyl]amino}imidazo[1,2-a]pyrimido[5,4-e]pyrimidin-5(6H)-one] |
| > 8.00 | O=c1c2cnc(Nc3ccc(N4CCOCC4)cc3)nc2n2ccnc2n1-c1c(Cl)cccc1Cl [Example 169, 6-(2,6-dichlorophenyl)-2-{[4-(morpholin-4-yl)phenyl]amino}imidazo[1,2-a]pyrimido[5,4-e]pyrimidin-5(6H)-one] |
| > 8.00 | O=c1c2cnc(Nc3ccc(N4CCN(c5ccccn5)CC4)cc3)nc2n2ccnc2n1-c1ccccc1Cl [Example 247, 6-(2-chlorophenyl)-2-({4-[4-(pyridin-2-yl)piperazin-1-yl]phenyl}amino)imidazo[1,2-a]pyrimido[5,4-e]pyrimidin-5(6H)-one] |
| 7.00 to 8.00 | O=c1c2cnc(Nc3ccc(Br)cc3)nc2n2ccnc2n1-c1ccccc1Cl [Example 343, 2-[(4-bromophenyl)amino]-6-(2-chlorophenyl)imidazo[1,2-a]pyrimido[5,4-e]pyrimidin-5(6H)-one] |
| > 8.00 | COc1cc(Nc2ncc3c(=O)n(-c4ccccc4Cl)c4nccn4c3n2)ccc1OCCN1CCN(C)CC1 [Example 67, 6-(2-chlorophenyl)-2-({3-methoxy-4-[2-(4-methylpiperazin-1-yl)ethoxy]phenyl}amino)imidazo[1,2-a]pyrimido[5,4-e]pyrimidin-5(6H)-one] |
| 7.00 to 8.00 | O=C(Nc1ccc(Nc2ncc3c(=O)n(-c4ccccc4Cl)c4nccn4c3n2)cc1)C1CCCC1 [Example 58, N-(4-{[6-(2-chlorophenyl)-5-oxo-5,6-dihydroimidazo[1,2-a]pyrimido[5,4-e]pyrimidin-2-yl]amino}phenyl)cyclopentanecarboxamide] |
| > 8.00 | CN(C)C1CCN(c2ccc(Nc3ncc4c(=O)n(-c5c(F)cccc5Cl)c5nccn5c4n3)cc2)CC1 [Example 255, 6-(2-chloro-6-fluorophenyl)-2-({4-[4-(dimethylamino)piperidin-1-yl]phenyl}amino)imidazo[1,2-a]pyrimido[5,4-e]pyrimidin-5(6H)-one] |
| 7.00 to 8.00 | O=c1c2cnc(Nc3ccc(-c4cn[nH]c4)cc3)nc2n2ccnc2n1-c1ccccc1Cl [Example 43, 6-(2-chlorophenyl)-2-{[4-(1H-pyrazol-4-yl)phenyl]amino}imidazo[1,2-a]pyrimido[5,4-e]pyrimidin-5(6H)-one] |
| > 8.00 | CC(C)c1cc(Nc2ncc3c(=O)n(-c4ccccc4Cl)c4nccn4c3n2)ccc1N1CCN(C)CC1 [Example 157, 6-(2-chlorophenyl)-2-{[4-(4-methylpiperazin-1-yl)-3-(propan-2-yl)phenyl]amino}imidazo[1,2-a]pyrimido[5,4-e]pyrimidin-5(6H)-one] |
| > 8.00 | CC(C)c1cc(Nc2ncc3c(=O)n(-c4c(Cl)cccc4Cl)c4nccn4c3n2)ccc1N1CCN(C)CC1 [Example 176, 6-(2,6-dichlorophenyl)-2-{[4-(4-methylpiperazin-1-yl)-3-(propan-2-yl)phenyl]amino}imidazo[1,2-a]pyrimido[5,4-e]pyrimidin-5(6H)-one] |
